# Data taken from article PMC11651181, “Discovery of 6α-Thiazolylcarboxamidonaltrexamine Derivative (NTZ) as a Potent and Central Nervous System Penetrant Opioid Receptor Modulator with Drug-like Properties for Potential Treatment of Opioid Use Disorder” (ACS Pharmacology & Translational Science, 2024).
# “Also recorded” adds a separate entry of the source. Structures can show the parent of a compound that is named as a salt.
# Experiments:
# μ opioid receptor (MOR) = molecular target: T1, μ opioid receptor (MOR) (Mus musculus, UniProt P42866); assay: Competitive radioligand binding assay, MOR
# T1 construct: expressed in transfected cells; host or cells: CHO (mMOR-CHO), membrane preparation
# Method: (§1) The competition binding assay was performed using monoclonal mouse opioid receptors expressed in CHO cell lines (monoclonal human δ opioid receptor was used for the DOR assay).
# (§2) The bound radioligand was separated using a Brandel harvester. Specific binding to the MOR, KOR, and DOR was calculated by subtracting the binding observed in the presence of 5 μM naltrexone, U50488, and SNC80, respectively, from the binding in their absence. Relative affinity values (IC50) were determined by fitting displacement binding inhibition data to a nonlinear regression model using GraphPad Prism 8.0 (GraphPad Software, San Diego, CA). The % inhibition was calculated using the formula: % inhibition = 100% - [(binding with the tested compound - nonspecific binding)/specific binding] × 100%. The IC50 values were converted to Ki values using the Cheng-Prusoff equation: Ki = IC50/ [1 + ([L*]/KD)], where [L*] is the concentration of the radioligand and KD is the KD of the radioligand.[68]
# δ opioid receptor (DOR) = molecular target: T2, δ opioid receptor (DOR) (Homo sapiens, UniProt P41143); assay: Competitive radioligand binding assay, DOR
# T2 construct: expressed in transfected cells; host or cells: CHO (hDOR-CHO), membrane preparation
# Method: as §1, §2
# MOR [1] = molecular target: T3, MOR (Mus musculus, UniProt P42866); assay: MOR [35S]GTPγS functional assay; type: biochemical
# T3 construct: expressed in transfected cells; host or cells: CHO (MOR-CHO), membrane preparation
# Method: (§3) The [^35S]GTPγS functional assay was used to assess the efficacy of compounds at the MOR, KOR, and DOR. In this assay, 10 μg of MOR-CHO/KOR-CHO/DOR-CHO membrane protein was incubated in 500 μL of TME with 100 mM NaCl, 20 μM GDP, 0.1 nM [^35S]GTPγS, and varying concentrations of the compound for 1.5 h in a 30 °C water bath. Protein concentration was adjusted using the Bradford protein assay. […] After incubation, bound radioactivity was separated by filtration through GF/B glass fiber filters and measured by liquid scintillation counting. All assays were performed in duplicate and repeated at least three times. Net stimulated [35S]GTPγS binding was calculated as agonist-stimulated minus basal binding.
# KOR = molecular target: T4, KOR (Mus musculus, UniProt P33534); assay: KOR [35S]GTPγS functional assay; type: biochemical
# T4 construct: expressed in transfected cells; host or cells: CHO (KOR-CHO), membrane preparation
# Method: as §3
# DOR = molecular target: T5, DOR (Homo sapiens, UniProt P41143); assay: DOR [35S]GTPγS functional assay; type: biochemical
# T5 construct: expressed in transfected cells; host or cells: CHO (DOR-CHO), membrane preparation
# Method: as §3
# MOR [2] = molecular target: T3, MOR; assay: MOR calcium flux assay in Gαqi5-transfected mMOR-CHO cells; type: cell-based
# Method: Ligands were initially tested at various concentrations (0.3 nM to 3 μM) for potential agonist activity in MOR-CHO cells. These cells were transfected with Gqi5 pcDNA1 using Lipofectamine 2000 (Invitrogen) following the manufacturer’s protocol. […] Peak values were obtained using SoftMaxPro software (Molecular Devices), and IC50 values were calculated by generating nonlinear regression curves using GraphPad Prism. Each dose was tested in triplicates, and the experiment was repeated at least four times to calculate standard errors.
# morphine-pelleted mice = assay: In vivo opioid withdrawal studies in morphine-pelleted mice; design: species or system mouse
# Method: Swiss Webster mice (six males per group, weighing 25–35 g and aged 6–8 weeks) were used. Following a previously established protocol,[20] a 75 mg morphine pellet was implanted subcutaneously into the back of each mouse, and they were allowed to recover in their home cages. Prior to testing, the mice were habituated for 30 min in an open-topped, clear Plexiglas observation chamber (26 × 26 × 26 cm^3) with lines marking the floor into quadrants. […]. Withdrawal symptoms began within 3 min of antagonist administration. Escape jumps, paw tremors, and wet dog shakes were recorded by counting their occurrences over a 20 min period for each mouse. Results are expressed as the mean ± SEM.
# [3] = Plasma protein binding, Sprague-Dawley rat; type: in vitro ADME
# Method: (§4) The ADMET assessment including the hERG inhibitory activity, plasma protein binding, in vitro metabolic stability profile, CYP inhibitory effect and mutagenic evaluation were conducted by Eurofins Panlabs, Inc.[21],[61],[69]−[71]
# [4] = In vitro metabolic stability in human liver microsomes; type: in vitro ADME; details: 1.0E-07 M
# Method: as §4
# [5] = In vitro metabolic stability in Sprague-Dawley rat liver microsomes; type: in vitro ADME; details: 1.0E-07 M; for % Compound Remaining, mean: rat liver microsomes
# Method: as §4
# CYP2A6 = molecular target: T6, CYP2A6 (Homo sapiens, UniProt P11509); assay: Cytochrome P450 inhibition assay, CYP2A6; type: in vitro ADME
# T6 construct: Eurofins Panlabs, Inc. (contract laboratory)
# T6 sequence (P11509 1-494): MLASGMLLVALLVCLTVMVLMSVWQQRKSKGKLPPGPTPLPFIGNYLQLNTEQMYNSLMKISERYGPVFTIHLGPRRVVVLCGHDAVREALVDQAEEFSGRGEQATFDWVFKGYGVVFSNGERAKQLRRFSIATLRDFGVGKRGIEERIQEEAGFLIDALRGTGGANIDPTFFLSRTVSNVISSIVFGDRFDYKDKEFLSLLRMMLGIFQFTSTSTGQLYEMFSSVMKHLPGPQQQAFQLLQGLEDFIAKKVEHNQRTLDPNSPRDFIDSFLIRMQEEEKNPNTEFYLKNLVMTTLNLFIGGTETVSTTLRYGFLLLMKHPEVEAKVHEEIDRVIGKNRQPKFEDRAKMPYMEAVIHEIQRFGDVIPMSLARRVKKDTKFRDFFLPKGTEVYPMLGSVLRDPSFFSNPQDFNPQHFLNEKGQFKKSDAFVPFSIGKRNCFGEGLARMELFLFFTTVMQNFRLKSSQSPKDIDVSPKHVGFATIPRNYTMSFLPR
# Method: as §4
# CYP2C9 = molecular target: T7, CYP2C9 (Homo sapiens, UniProt P11712); assay: Cytochrome P450 inhibition assay, CYP2C9; type: in vitro ADME
# T7 construct: Eurofins Panlabs, Inc. (contract laboratory)
# Method: as §4
# CYP2C19 = molecular target: T8, CYP2C19 (Homo sapiens, UniProt P33261); assay: Cytochrome P450 inhibition assay, CYP2C19; type: in vitro ADME
# T8 construct: Eurofins Panlabs, Inc. (contract laboratory)
# Method: as §4
# CYP3A4 = molecular target: T9, CYP3A4 (Homo sapiens, UniProt P08684); assay: Cytochrome P450 inhibition assay, CYP3A4; type: in vitro ADME
# T9 construct: Eurofins Panlabs, Inc. (contract laboratory)
# Method: as §4
# [6] = 5 mg/kg s.c., counted over 20 min
# [7] = Sprague-Dawley rat liver microsomes
# T3 sequence (P42866 whole entry): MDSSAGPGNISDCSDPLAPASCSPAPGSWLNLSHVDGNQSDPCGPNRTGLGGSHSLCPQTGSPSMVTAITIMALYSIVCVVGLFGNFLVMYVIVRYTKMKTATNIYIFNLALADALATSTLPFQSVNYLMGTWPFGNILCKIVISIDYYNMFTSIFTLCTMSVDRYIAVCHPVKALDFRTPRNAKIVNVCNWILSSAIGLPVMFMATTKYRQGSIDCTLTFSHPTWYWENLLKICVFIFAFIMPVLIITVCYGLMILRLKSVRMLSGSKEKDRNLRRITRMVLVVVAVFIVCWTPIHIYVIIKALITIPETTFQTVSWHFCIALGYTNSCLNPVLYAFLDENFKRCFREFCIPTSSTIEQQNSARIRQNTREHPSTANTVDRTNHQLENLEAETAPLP
# T9 sequence (P08684 whole entry): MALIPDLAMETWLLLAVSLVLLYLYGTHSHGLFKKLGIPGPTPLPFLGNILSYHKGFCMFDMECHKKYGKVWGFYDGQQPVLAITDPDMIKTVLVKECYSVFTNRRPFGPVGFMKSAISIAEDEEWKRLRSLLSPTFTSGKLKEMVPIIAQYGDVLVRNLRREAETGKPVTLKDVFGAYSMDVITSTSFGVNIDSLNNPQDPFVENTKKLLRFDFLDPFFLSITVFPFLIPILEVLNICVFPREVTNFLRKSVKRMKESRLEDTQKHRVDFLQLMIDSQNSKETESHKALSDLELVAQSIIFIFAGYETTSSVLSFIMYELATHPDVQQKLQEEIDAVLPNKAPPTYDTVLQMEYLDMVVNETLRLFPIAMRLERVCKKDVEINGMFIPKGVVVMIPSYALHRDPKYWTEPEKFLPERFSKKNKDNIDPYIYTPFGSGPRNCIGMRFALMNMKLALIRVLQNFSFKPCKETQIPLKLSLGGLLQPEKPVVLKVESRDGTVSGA
# T5 sequence (P41143 whole entry): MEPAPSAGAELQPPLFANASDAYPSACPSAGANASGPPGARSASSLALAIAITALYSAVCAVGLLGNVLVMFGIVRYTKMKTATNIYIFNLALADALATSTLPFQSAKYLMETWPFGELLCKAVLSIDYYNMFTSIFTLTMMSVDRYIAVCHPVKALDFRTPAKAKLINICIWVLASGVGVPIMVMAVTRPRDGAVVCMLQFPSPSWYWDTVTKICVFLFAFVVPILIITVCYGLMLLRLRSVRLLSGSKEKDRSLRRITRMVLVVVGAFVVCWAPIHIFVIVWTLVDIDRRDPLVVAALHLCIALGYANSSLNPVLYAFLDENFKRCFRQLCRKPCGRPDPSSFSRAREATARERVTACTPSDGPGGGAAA
# T2 sequence (P41143 whole entry): as above
# T7 sequence (P11712 whole entry): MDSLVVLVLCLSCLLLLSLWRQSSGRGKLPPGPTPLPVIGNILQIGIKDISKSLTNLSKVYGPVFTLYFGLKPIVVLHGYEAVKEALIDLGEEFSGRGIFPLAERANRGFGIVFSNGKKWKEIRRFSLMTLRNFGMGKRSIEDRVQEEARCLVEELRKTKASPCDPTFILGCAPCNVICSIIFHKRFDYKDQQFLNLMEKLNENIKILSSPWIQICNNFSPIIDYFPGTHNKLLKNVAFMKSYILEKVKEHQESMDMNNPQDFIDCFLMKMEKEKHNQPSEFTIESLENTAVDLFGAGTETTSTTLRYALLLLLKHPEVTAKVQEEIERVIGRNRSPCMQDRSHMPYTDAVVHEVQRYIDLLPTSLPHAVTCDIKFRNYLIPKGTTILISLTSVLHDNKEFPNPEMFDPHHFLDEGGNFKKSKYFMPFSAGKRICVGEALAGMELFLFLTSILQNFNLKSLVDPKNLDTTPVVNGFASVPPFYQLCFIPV
# T8 sequence (P33261 whole entry): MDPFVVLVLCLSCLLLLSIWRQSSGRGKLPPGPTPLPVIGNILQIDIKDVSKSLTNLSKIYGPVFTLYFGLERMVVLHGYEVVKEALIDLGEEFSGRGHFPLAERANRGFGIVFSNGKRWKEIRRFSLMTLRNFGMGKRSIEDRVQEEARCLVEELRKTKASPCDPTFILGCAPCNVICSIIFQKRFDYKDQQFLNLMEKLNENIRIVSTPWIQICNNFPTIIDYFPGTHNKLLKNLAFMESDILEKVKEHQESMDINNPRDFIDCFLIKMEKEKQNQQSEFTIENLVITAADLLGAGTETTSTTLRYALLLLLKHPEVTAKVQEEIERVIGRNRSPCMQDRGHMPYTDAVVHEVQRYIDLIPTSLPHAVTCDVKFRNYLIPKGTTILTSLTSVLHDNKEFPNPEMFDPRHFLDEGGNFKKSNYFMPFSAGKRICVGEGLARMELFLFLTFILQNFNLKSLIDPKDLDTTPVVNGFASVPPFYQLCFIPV
# T4 sequence (P33534 whole entry): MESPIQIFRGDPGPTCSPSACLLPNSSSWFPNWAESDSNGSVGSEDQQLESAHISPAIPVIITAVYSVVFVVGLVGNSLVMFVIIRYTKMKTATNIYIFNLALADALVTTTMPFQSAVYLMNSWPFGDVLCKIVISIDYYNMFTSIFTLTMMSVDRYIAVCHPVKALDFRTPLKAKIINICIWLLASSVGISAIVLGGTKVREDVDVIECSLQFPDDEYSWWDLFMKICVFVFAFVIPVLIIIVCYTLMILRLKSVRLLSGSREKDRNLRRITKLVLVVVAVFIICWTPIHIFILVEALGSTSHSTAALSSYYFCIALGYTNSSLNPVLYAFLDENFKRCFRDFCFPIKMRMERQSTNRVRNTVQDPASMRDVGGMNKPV
# T1 sequence (P42866 whole entry): as the sequence (P42866 whole entry) above
structure (smiles),measurement,setting,value
"O=C(N[C@H]1CC[C@@]2(O)[C@H]3Cc4ccc(O)c5c4[C@@]2(CCN3CC2CC2)[C@H]1O5)c1nccs1 [Compound 6, 17-Cyclopropylmethyl-3,14β-dihydroxy-4,5α-epoxy-6α-(2′-thiazolylcarboxamido)-morphinan hydrochloride]",Ki,μ opioid receptor (MOR),0.25 ± 0.03 nM
same,Ki,δ opioid receptor (DOR),41.1 ± 3.58 nM
same,Selectivity δ/μ,δ opioid receptor (DOR); ratio of Ki values,164
same,EC50,MOR [1],2.16 ± 0.38 nM
same,Emax,"MOR [1]; read-out: MOR [35S]GTPγS Binding %Emax of DAMGO, relative to 3 μM DAMGO, mean ± SEM",6 to 11%
same,MOR [35S]GTPγS Binding %Emax of DAMGO,"MOR [1]; relative to 3 μM DAMGO, mean ± SEM",11.3 ± 1.30%
same,EC50,KOR,3.83 ± 0.62 nM
same,Emax,"KOR; relative to 3 μM U50488H, mean ± SEM, read-out: KOR [35S]GTPγS binding % Emax of U50488H",23.5 ± 2.03%
same,EC50,DOR,23.6 ± 4.29 nM
same,Emax,"DOR; relative to 3 μM SNC80, mean ± SEM, read-out: DOR [35S]GTPγS binding % Emax of SNC80",46.5 ± 2.17%
same,IC50,MOR [2],5.64 ± 0.24 nM
same,"Agonistic activity in increasing intracellular calcium, in words",MOR [2]; compared to full MOR agonist DAMGO,no apparent agonism; also recorded: none of them showed any significant agonistic activity
same,"Jumps, mean count",morphine-pelleted mice; [6],36.8
same,"Paw tremors, mean count",morphine-pelleted mice; [6],30.2
same,"Wet dog shake, mean count",morphine-pelleted mice; [6],9.8
same,"Precipitated withdrawal symptoms, in words",morphine-pelleted mice; s.c.,fewer wet dog shakes and paw tremors at all testing doses than 1 mg/kg NLX
same,fraction unbound,[3],0.4
same,half-life at 100 nM,[4],> 1 h
same,microsomal CLint at 100 nM,[4],< 38.5 µL/min/mg
same,"% Compound Remaining, mean",[4]; 15 min,101%
same,"% Compound Remaining, mean",[4]; 30 min,101%
same,"% Compound Remaining, mean",[4]; 45 min,103%
same,"% Compound Remaining, mean",[4]; 60 min,97%
same,half-life at 100 nM,[5]; [7],> 1 h
same,microsomal CLint at 100 nM,[5]; [7],< 38.5 µL/min/mg
same,"% Compound Remaining, mean",[5]; 15 min,106%
same,"% Compound Remaining, mean",[5]; 30 min,115%
same,"% Compound Remaining, mean",[5]; 45 min,103%
same,"% Compound Remaining, mean",[5]; 60 min,105%
same,inhibition at 10 µM,CYP2A6; 1.0E-05 M,7.8%
same,inhibition at 100 nM,CYP2A6; 1.0E-07 M,6.3%
same,inhibition at 10 µM,CYP2C9; 1.0E-05 M,16.3%
same,inhibition at 100 nM,CYP2C9; 1.0E-07 M,0.6%
same,inhibition at 10 µM,CYP2C19; 1.0E-05 M,78.4%
same,inhibition at 100 nM,CYP2C19; 1.0E-07 M,13.2%
same,inhibition at 10 µM,CYP3A4; 1.0E-05 M,23.5%
same,inhibition at 100 nM,CYP3A4; 1.0E-07 M,10.1%
